Source: paper PMC3351444, “Molecular Evolution of a Peptide GPCR Ligand Driven by Artificial Neural Networks” (PLoS ONE, 2012)
Where two headings read alike, the source gives them in different places. Square brackets hold non-standard residues; d marks the D form. Ends that are not written are not given here. Peptide text beside a SMILES is read from it.

Columns and labels:
human CMKLR1 = molecular target: T1, human CMKLR1 (Homo sapiens, UniProt Q99788); assay: Ca2+ mobilization (CellLux imaging) agonist assay in HEK293A cells expressing CMKLR1 and Gα15; format: cell-based
T1 construct: host or cells: HEK293A (Invitrogen), stably expressing human Gα15
T1 sequence (Q99788 1-373): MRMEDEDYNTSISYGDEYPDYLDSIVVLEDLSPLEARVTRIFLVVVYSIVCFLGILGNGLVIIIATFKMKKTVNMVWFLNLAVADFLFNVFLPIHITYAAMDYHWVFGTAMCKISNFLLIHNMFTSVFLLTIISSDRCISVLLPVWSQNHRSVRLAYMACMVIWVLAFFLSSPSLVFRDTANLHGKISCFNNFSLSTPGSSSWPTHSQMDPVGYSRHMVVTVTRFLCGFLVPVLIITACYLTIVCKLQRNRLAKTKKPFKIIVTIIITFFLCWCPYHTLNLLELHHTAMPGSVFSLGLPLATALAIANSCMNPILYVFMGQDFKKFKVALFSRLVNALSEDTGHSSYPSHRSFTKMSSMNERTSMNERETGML
In short: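 HEK293A cells co-expressing CMKLR1 and Gα15 were loaded with FLUO4-AM, and peptides were added robotically in C1 buffer (HEPES pH 7.4, 2 mM CaCl2) with 0.1% BSA. Fluorescence changes were read in duplicate wells, buffer-subtracted and normalized to background. EC50 came from amplitude–concentration plots.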

[1] = In vitro peptide stability in human serum (RP-HPLC); conditions: for half-life at 50 µg/mL: human; for t1/2: metabolic stability in human serum
Procedure: The initial time is recorded, and at known time intervals 50 µL of the reaction solution is removed and added to 100 µL of 6% aqueous trichloroacetic acid (TCA) for precipitation of serum proteins. […] The reaction supernatant is then analyzed using RP-HPLC (Agilent 1200 LC System) on a ZORBAX Eclipse XDB-C18, 4.6×150 mm, 5 µm column (Agilent). […] Fluorescence is detected at an excitation wavelength of 280 nm and emission wavelength of 340 nm. Kinetic analysis was carried out by least-squares analysis of the logarithm of the integration peak area versus time.

[2] = Ca2+ mobilization, CMKLR1, decimal comma
[3] = Ca2+ mobilization, CMKLR1, decimal comma, NR where no EC50 is given, read-out: EC50
[4] = intracellular calcium mobilization, HEK293 cells expressing CMKLR1, mean of three independent experiments ± SD, read-out: activity: EC50 ±SD

Row | Compound | max response (human CMKLR1; [2]) | EC50 (human CMKLR1; [3]) [µM] | half-life at 50 µg/mL ([1]; human serum, 25% (v/v) in RPMI) [min] | t1/2 [1] [min] | half-life at 50 µg/mL ([1]; serum) [min] | EC50 (human CMKLR1; [4]) [µM] | EC50 (human CMKLR1) [µM]
1 | CC(C)C[C@H](NC(=O)[C@H](N)Cc1ccccc1)C(=O)N1CCC[C@H]1C(=O)NCC(=O)N[C@@H](CCC(N)=O)C(=O)N[C@@H](Cc1ccc(O)cc1)C(=O)N[C@@H](C)C(=O)N[C@@H](Cc1ccccc1)C(=O)N[C@H](CO)C(=O)O [compound 95] (H-[dF]LPGQYAF[dS]-OH; N-terminus assumed) | 1,75 DF/F0 | 0.0806 | 2440 | – | – | – | –
2 | C[C@H](NC(=O)[C@H](Cc1ccc(O)cc1)NC(=O)[C@H](CCC(N)=O)NC(=O)CNC(=O)[C@H](Cc1ccccc1)NC(=O)[C@H](Cc1ccc(O)cc1)NC(=O)[C@H](N)CS)C(=O)N[C@@H](Cc1ccccc1)C(=O)N[C@H](CO)C(=O)O [compound 113] (H-[dC]YFGQYAF[dS]-OH; N-terminus assumed) | 1,56 DF/F0 | 2.19 | 29 | – | – | – | –
3 | CC(C)C[C@H](NC(=O)[C@@H](N)CC(C)C)C(=O)N[C@@H](Cc1ccc(O)cc1)C(=O)N[C@H](Cc1c[nH]c2ccccc12)C(=O)N1CCC[C@H]1C(=O)N[C@@H](Cc1ccc(O)cc1)C(=O)N[C@@H](C)C(=O)N[C@@H](CCCCN)C(=O)N[C@H](CO)C(=O)O [compound 144] (H-LLY[dW]PYAK[dS]-OH; N-terminus assumed) | 1,56 DF/F0 | 0.145 | 81 | – | – | – | –
4 | CC(C)C[C@H](NC(=O)[C@@H](N)Cc1ccc(O)cc1)C(=O)N1CCC[C@H]1C(=O)NCC(=O)N[C@@H](CCC(N)=O)C(=O)N[C@@H](Cc1ccc(O)cc1)C(=O)N[C@@H](C)C(=O)N[C@H](C)C(=O)N[C@H](Cc1ccccc1)C(=O)O [compound 141] (H-YLPGQYA[dA][dF]-OH; N-terminus assumed) | 1,73 DF/F0 | 0.108 | 34 | – | – | – | –
5 | FLPGQYAFS-OH [compound 34] | 0,68 DF/F0 | – | – | 28 | – | – | –
6 | C[C@H](NC(=O)[C@H](Cc1ccc(O)cc1)NC(=O)[C@H](CCC(N)=O)NC(=O)[C@@H](CO)NC(=O)[C@H](Cc1ccccc1)NC(=O)[C@H](C)NC(=O)[C@@H](N)Cc1ccc(O)cc1)C(=O)N[C@@H](Cc1ccccc1)C(=O)N[C@H](CO)C(=O)O [compound 92] (H-YAF[dS]QYAF[dS]-OH; N-terminus assumed) | 1,54 DF/F0 | 0.0609 | 52 | – | – | – | –
7 | YLPGQFAFL-OH [compound 39] | 1,01 DF/F0 | 0.00585 | 24 | – | – | – | –
8 | CC(C)C[C@H](NC(=O)[C@H](N)Cc1ccc(O)cc1)C(=O)N1CCC[C@H]1C(=O)N[C@H](CO)C(=O)N[C@@H](CCC(N)=O)C(=O)N[C@@H](Cc1ccc(O)cc1)C(=O)N[C@@H](C)C(=O)N[C@@H](Cc1ccccc1)C(=O)N[C@H](Cc1ccccc1)C(=O)O [compound 120] (H-[dY]LP[dS]QYAF[dF]-OH; N-terminus assumed) | 1,97 DF/F0 | – | – | – | 1690 | – | –
9 | YLPGQYAFL-OH [compound 38] | 1,05 DF/F0 | – | – | 27 | – | – | –
10 | FLFGFQFAY-OH [compound 109] | 1,7 DF/F0 | 1.65 | 16 | – | – | – | –
11 | CC(C)C[C@H](NC(=O)[C@@H](N)Cc1ccc(O)cc1)C(=O)N1CCC[C@H]1C(=O)NCC(=O)N[C@@H](CCC(N)=O)C(=O)N[C@@H](Cc1ccc(O)cc1)C(=O)N[C@H](Cc1c[nH]c2ccccc12)C(=O)N[C@@H](Cc1ccccc1)C(=O)N[C@H](Cc1ccccc1)C(=O)O [YLPGQYwFf] (H-YLPGQY[dW]F[dF]-OH; N-terminus assumed) | – | – | 159 ± 56 | – | – | 0.00324 ± 0.00102 | –
12 | CC(C)[C@H](NC(=O)[C@@H](Cc1ccc(O)cc1)NC(=O)[C@H](CO)NC(=O)[C@@H]1CCCN1)C(=O)N1CCC[C@H]1C(=O)NCC(=O)N[C@@H](CCC(N)=O)C(=O)N[C@@H](Cc1ccc(O)cc1)C(=O)N[C@@H](C)C(=O)O [compound 107] (H-PS[dY]VPGQYA-OH; N-terminus assumed) | 1,97 DF/F0 | 1.06 | 362 | – | – | – | –
13 | CC(C)C[C@H](NC(=O)[C@@H](N)Cc1ccccc1)C(=O)N1CCC[C@H]1C(=O)NCC(=O)N[C@@H](CCC(N)=O)C(=O)NCC(=O)N[C@H](Cc1ccccc1)C(=O)N[C@@H](Cc1ccccc1)C(=O)N[C@@H](CO)C(=O)O [compound 61] (H-FLPGQG[dF]FS-OH; N-terminus assumed) | 0,73 DF/F0 | 0.456 | 41 | – | – | – | –
14 | CC(C)C[C@H](NC(=O)[C@@H](N)Cc1ccc(O)cc1)C(=O)N1CCC[C@H]1C(=O)N[C@H](Cc1ccc(O)cc1)C(=O)N[C@H](CCC(N)=O)C(=O)N[C@@H](Cc1ccc(O)cc1)C(=O)N[C@@H](C)C(=O)N[C@@H](CCC(N)=O)C(=O)N[C@H](Cc1ccccc1)C(=O)O [compound 150] (H-YLP[dY][dQ]YAQ[dF]-OH; N-terminus assumed) | 1,35 DF/F0 | 0.284 | 62 | – | – | – | –
15 | C[C@H](NC(=O)[C@H](Cc1ccc(O)cc1)NC(=O)[C@H](CCC(N)=O)NC(=O)CNC(=O)[C@@H]1CCCN1C(=O)[C@@H](Cc1ccc(O)cc1)NC(=O)[C@@H](N)Cc1ccc(O)cc1)C(=O)N[C@@H](Cc1ccccc1)C(=O)N[C@H](CO)C(=O)O [compound 88] (H-Y[dY]PGQYAF[dS]-OH; N-terminus assumed) | 1,51 DF/F0 | 0.0351 | 891 | – | – | – | –
16 | CC(C)C[C@H](NC(=O)[C@@H](N)Cc1ccc(O)cc1)C(=O)N1CCC[C@H]1C(=O)N[C@H](C)C(=O)N[C@@H](CCC(N)=O)C(=O)N[C@@H](Cc1ccc(O)cc1)C(=O)N[C@@H](C)C(=O)N[C@@H](Cc1ccccc1)C(=O)N[C@H](CO)C(=O)O [compound 124] (H-YLP[dA]QYAF[dS]-OH; N-terminus assumed) | 1,75 DF/F0 | – | – | 110 | – | – | –
17 | CC(C)C[C@H](NC(=O)[C@H](N)Cc1ccc(O)cc1)C(=O)N1CCC[C@H]1C(=O)NCC(=O)N[C@@H](CCC(N)=O)C(=O)N[C@@H](Cc1ccc(O)cc1)C(=O)N[C@@H](C)C(=O)N[C@@H](Cc1ccccc1)C(=O)N[C@@H](CO)C(=O)O [compound 82] (H-[dY]LPGQYAFS-OH; N-terminus assumed) | 1,61 DF/F0 | 0.00362 | 77 | – | – | – | –
18 | CC(C)[C@H](NC(=O)[C@@H](N)Cc1ccc(O)cc1)C(=O)N1CCC[C@H]1C(=O)NCC(=O)N[C@@H](CCC(N)=O)C(=O)N[C@@H](Cc1ccccc1)C(=O)N[C@@H](C)C(=O)N[C@@H](Cc1ccccc1)C(=O)N[C@H](Cc1ccccc1)C(=O)O (H-YVPGQFAF[dF]-OH; N-terminus assumed) | – | – | 42 ± 19 | – | – | 0.00417 ± 0.00231 | –
19 | YFLGQFAFK-OH [compound 76] | 0,65 DF/F0 | 5.83 | 16 | – | – | – | –
20 | FLPPQFAFF-OH [compound 73] | 0,77 DF/F0 | 3 | 20 | – | – | – | –
21 | CC(C)C[C@H](NC(=O)[C@@H](N)Cc1ccc(O)cc1)C(=O)N1CCC[C@H]1C(=O)NCC(=O)N[C@@H](CCC(N)=O)C(=O)N[C@@H](Cc1ccccc1)C(=O)N[C@H](Cc1ccccc1)C(=O)N[C@@H](Cc1ccccc1)C(=O)N[C@@H](CO)C(=O)O [compound 28] (H-YLPGQF[dF]FS-OH; N-terminus assumed) | 0,97 DF/F0 | 0.00077 | 24 | – | – | – | –
22 | CC(C)C[C@H](NC(=O)[C@@H]1CCCN1C(=O)[C@@H](NC(=O)[C@H](Cc1ccc(O)cc1)NC(=O)[C@@H]1CCCN1)C(C)C)C(=O)N[C@H](CC(=O)O)C(=O)N[C@@H](Cc1ccc(O)cc1)C(=O)N[C@@H](C)C(=O)N[C@@H](Cc1ccccc1)C(=O)O [compound 111] (H-PYVPL[dD]YAF-OH; N-terminus assumed) | 1,5 DF/F0 | 1.94 | 92 | – | – | – | –
23 | CC(C)[C@H](N)C(=O)N1CCC[C@H]1C(=O)NCC(=O)N[C@@H](CCC(N)=O)C(=O)N[C@@H](Cc1ccc(O)cc1)C(=O)N[C@@H](C)C(=O)N[C@@H](Cc1ccccc1)C(=O)N[C@H](CO)C(=O)N[C@H](CO)C(=O)O [compound 99] (H-VPGQYAF[dS][dS]-OH; N-terminus assumed) | 1,7 DF/F0 | 0.129 | 43 | – | – | – | –
24 | CSCC[C@H](NC(=O)[C@H](N)Cc1ccc(O)cc1)C(=O)N1CCC[C@H]1C(=O)NCC(=O)N[C@@H](CCC(N)=O)C(=O)N[C@@H](Cc1ccc(O)cc1)C(=O)N[C@@H](C)C(=O)N[C@@H](Cc1ccccc1)C(=O)N[C@@H](CO)C(=O)O [compound 85] (H-[dY]MPGQYAFS-OH; N-terminus assumed) | 1,78 DF/F0 | 0.0117 | 75 | – | – | – | –
25 | CC(C)C[C@H](NC(=O)[C@@H](N)Cc1ccc(O)cc1)C(=O)N1CCC[C@H]1C(=O)N[C@H](CO)C(=O)N[C@@H](CCC(N)=O)C(=O)N[C@@H](Cc1ccc(O)cc1)C(=O)N[C@@H](C)C(=O)N[C@@H](Cc1ccccc1)C(=O)N[C@H](Cc1ccccc1)C(=O)O [compound 119] (H-YLP[dS]QYAF[dF]-OH; N-terminus assumed) | 1,62 DF/F0 | – | – | – | 63 | – | 0.00031
26 | YLPGQGAFP-OH [compound 49] | 0,97 DF/F0 | 0.0287 | 17 | – | – | – | –
